These results are taken from patent publication US12084680B2, “Methods for efficient derivation of human motor neurons from diverse spinal regions” (Wisconsin Alumni Research Foundation, priority 2016, dated 2024).

Some results are limits rather than exact numbers.

One experiment concerns H9 hESCs. The experiment in a line: OLIG2 induction in thoracic and lumbar neuroectoderm at various day 5 reseed densities. Type of experiment: cell-based, human. Particulars: for PAX6+/OLIG2+ cells: reseed 1.5×10^5 cells/cm^2. The source says: However, OLIG2 induction was less efficient upon employing the standard deterministic HOX patterning protocol to generate thoracic and lumbar neuromesoderm followed by a CHIR boost and application of RA and SHH/PM (FIG. 6A). Only 11±2% and 67±9% of the cells in the thoracic and lumbar cultures, respectively, were PAX6^+/OLIG2^+ (FIGS. 6B-6C). We noted that our standard neuromesodermal protocol always used a reseed density of 1.5×10^5 cells/cm^2, which generates a relatively confluent but not tightly packed cell monolayer 24 h after seeding. Having previously determined that cell density and cell-cell contacts can serve as modulators of neural fate, we explored the effects of seeding density on OLIG2 induction.
hESCs were dissociated with accutase (Thermo Fisher Scientific) and reseeded at 1×10^5 cells/cm2 in E8 medium containing 10 μM ROCK inhibitor (Y27632; R&D Systems) on 6-well polystyrene tissue culture plates coated with 100 μg/mL poly-L-ornithine (PLO; Sigma) and 8 μg/well VTN-NC. The timelines and relevant growth factors/small molecules for all differentiation procedures are described in detail in the Results section and its accompanying figures. Cells were differentiated for various amounts of time in E6 medium containing the same insulin concentration as E8 medium as described above with varying combinations of soluble factors (product information and concentration ranges are found in Table 2). For neuromesodermal induction and HOX propagation, cells were sequentially cultured with FGF8b, CHIR99021 (CHIR), GDF11, and dorsomorphin (DM) as previously described. Briefly, to initiate the neuromesodermal state, cells were changed to E6 medium followed by addition of FGF8b (200 ng/ml) 24 h later. To generate cervical neuromesodermal progenitors, cells were washed with PBS, treated with accutase, and re-seeded in E6 medium containing 200 ng/ml FGF8b, 3 μM CHIR, and 10 μM Y27632 on VTN-NC-coated plates at a density of 1.5×10^5 cells/cm^2 for 48 h. To generate thoracic neuromesodermal progenitors, cells were passaged again after 72 h of CHIR treatment and re-seeded at different densities as described in the text.
Thoracic identity was reached after an additional 24 h. Then, to reach the lumbosacral level, cells were given 30 ng/ml GDF11 and 1 μM DM for an additional 48 h. For neuroectoderm induction and generation of OLIG2^+ progenitors, FGF8b was removed at the designated time points and the concentration of CHIR was increased for 6 h as described in the text, followed by a transition to media containing RA, PM, and SHH for a period of 48 h. For differentiation of the OLIG2^+ progenitors to motor neurons, cells were subcultured by en bloc passage using a cell scraper, reseeded at a 1:200 ratio in Matrigel-coated 8-well chamber slides, and differentiated for 14 days in E6 medium containing 1 μM RA, 100 nM PM, and 100 ng/mL SHH, with media exchange every 3 days (10 μM Y27632 was included during the en bloc passaging step and removed after the first media exchange). For differentiation of lumbar cultures, 1 μM DM was included in all steps. For the myoblast co-culture experiments, OLIG2^+ cultures were en bloc passaged, frozen in E6 medium containing 10% DMSO, shipped to a different location, and thawed 1:10 in 6-well plates under the same conditions as described in FIG. 5. To facilitate neuronal maturation prior to myoblast co-culture, 5 μM DAPT (Tocris) was added from days 8-14 post-thaw. Flow cytometry, RT-PCR, and qPCR (RPS18 and CTNNB1 Taqman primers from Thermo Fisher Scientific) were conducted as previously described.

The test system of the next experiment is GLI1, GLI2, GLI3. The experiment in a line: qPCR of GLI transcription factors in day 6 cultures. The format is cell-based, human. The conditions noted are these: 6 μM CHIR maintained during RA and PM/SHH exposure, day 6, versus 0 μM CHIR. Here is the method:
To begin, we sequentially differentiated H9 hESCs in E6 media for 1 day, and FGF8b (200 ng/mL) for 1 day, and FGF8b and CHIR (3 μM) for 2 days to generate cervical neuromesoderm (FIGS. 5A-5B). Then, we screened the effects of CHIR, PM, and SHH treatment on NKX6.1^+/PAX6^+/OLIG2^+ motor neuron progenitor induction while transitioning to media containing 1 μM RA (FIGS. 5A-5D). Prior to the addition of RA, NKX6.1 was expressed in the cervical neuromesodermal state at day 4 (80±18% NKX6.1^+; data not shown), likely due to the CHIR-induced Wnt/β-catenin signaling (FIGS. 4A-4H). Transitioning the neuromesodermal progenitors to RA-containing media for 2 days induced HOXB4^+/HOXC6^+/HOXC9^−/HOXD10^−/PAX6^+ cervical neuroectoderm in all conditions (FIGS. 5B-5C), as expected. However, without co-activation of SHH signaling by PM or SHH, NKX6.1 expression was quickly lost by day 6 (97±1% PAX6^+, 17±3% NKX6.1^+) (FIG. 5C). […] To bolster this claim, we also analyzed the abundance of full-length GLI3 versus its truncated repressor form by western blot. […] Thus, Wnt/β-catenin signaling is necessary to induce ventral identity, but its continuous activation during OLIG2 induction by SHH signaling is detrimental to motor neuron differentiation, possibly due to activation of the GLI3 repressor.
Thoracic identity was reached after an additional 24 h. Then, to reach the lumbosacral level, cells were given 30 ng/ml GDF11 and 1 μM DM for an additional 48 h. For neuroectoderm induction and generation of OLIG2^+ progenitors, FGF8b was removed at the designated time points and the concentration of CHIR was increased for 6 h as described in the text, followed by a transition to media containing RA, PM, and SHH for a period of 48 h. […]
On the technique in general: Quantitative PCR measures a nucleic acid by following its amplification.

As to `Cc1c[nH]c(-c2cnc(NCCNc3ccc(C#N)cn3)nc2-c2ccc(Cl)cc2Cl)n1` [CHIR, CHIR99021], the “PAX6+/OLIG2+ cells” value in the experiment on H9 hESCs (lumbar culture, CHIR boost then RA and SHH/PM) came to 67±9%; in the experiment with H9 hESCs (thoracic culture, CHIR boost then RA and SHH/PM), 11±2%. The “OLIG2+ cells” value in the experiment with H9 hESCs (lumbar neuroectoderm, reseed 4×10^5 cells/cm^2, with dorsomorphin, CHIR boost then RA and SHH/PM) was 82±3%; in the experiment with H9 hESCs (thoracic neuroectoderm, day 5 reseed 1×10^5 cells/cm^2, CHIR boost then RA and SHH/PM) it was 19±5%; in the experiment with H9 hESCs (thoracic neuroectoderm, day 5 reseed 2×10^5 cells/cm^2, CHIR boost then RA and SHH/PM) it was 48±3%; in the experiment with H9 hESCs (thoracic neuroectoderm, day 5 reseed 4×10^5 cells/cm^2, CHIR boost then RA and SHH/PM), 80±3%. The “decrease in GLI1 expression (qPCR)” value in the experiment with GLI1, GLI2, GLI3 is > 8 fold. For the same compound, in the experiment on GLI1, GLI2, GLI3, the “decrease in GLI2 expression (qPCR)” value is > 4 fold. Further, in the experiment with GLI1, GLI2, GLI3, the “increase in GLI3 expression (qPCR)” value is ~2 fold.
